Assays:
[1] = tested on: intestinal epithelial cell lines T84; experiment: Effect of LC-PUFA on IL-4 mediated barrier disruption of T84 monolayers (TER and permeability); assay type: cell-based; conditions: IL-4 2 ng/ml; fatty acid 100 μM, mucosal compartment; 48 hr pre-incubation + 48 hr co-incubation
Experimental: (§1) Monolayers (MC) of intestinal epithelial cell lines T84 were incubated in the luminal compartment with different 100 μM polyunsaturated fatty acids ARA (arachidonic acid; 5,8,11,14-eicosatetraenoic acid), DHA (cis-4,7,10,13,16,19 docosahexaenoic acid), EPA (eicosapentaenoic acid) or control palmiiic (C 16:0) acid (Palm) (Sigma, St. Louis, USA) for 0, 24, 48 and 72 hr. The epithelial barrier function was determined by measuring the transepithelial resistance (TER, Ωcm^2) by epithelial volt-ohm meter (EVOM; World Precision Instruments, Germany) and permeability for 4 kD FITC dextran (paracellular permeability marker, Sigma, USA).
Monolayers (MC) of intestinal epithelial cell lines T84 were incubated in the presence of IL-4 (2 ng/ml, scrosal compartment, Sigma, USA) with or without polyunsaturated fatty acids ARA, DHA, GLA, EPA, or control palmitic acid (10 μM or 100 μM, mucosal compartment, Sigma, St. Louis, USA). Cells were pre-incubated with ARA, DHA, EPA, or palmitic acid for 48 hr prior to the IL-4 incubation. The co-incubation of PUFA's and palmitic acid with IL-4 was continued for another 48 hr, while culture medium and additives were changed every 24 hr. The epithelial barrier function was determined by measuring the transepithelial resistance (TER) and permeability as described in example 2.

[2] = tested on: intestinal epithelial cell lines T84; experiment: Effect of LC-PUFA on spontaneous barrier integrity of T84 monolayers (TER and 4 kD FITC dextran flux); assay type: cell-based; conditions: result in words
Experimental: as §1

## CC/C=C\C/C=C\C/C=C\C/C=C\C/C=C\CCCC(=O)O [EPA, eicosapentaenoic acid]
[1]
  IL-4 Flux: 228
  IL-4 TER: 539

## CCCCCCCCCCCCCCCC(=O)O [Palmitic acid, palmitic acid, reference compound]
[1]
  IL-4 Flux: 777
  IL-4 TER: 321

## CCCCC/C=C\C/C=C\C/C=C\CCCCC(=O)O [GLA, gamma-linolenic acid]
[2]
  effect on basal barrier integrity resistance and flux: positive effect

## CCCCCC=CCC=CCC=CCC=CCCCC(=O)O [ARA, 5,8,11,14-eicosatetraenoic acid]
[1]
  IL-4 Flux: 218
  IL-4 TER: 636

— patent US20160058806A1, “METHOD FOR STIMULATING INTESTINAL BARRIER INTEGRITY AFTER NON-NATURAL BIRTH” (N.V. Nutricia, priority 2005, published 2016)
